Measured values reported in patent publication US4885307A, “Derivatives of 1-arylsulphonyl-1,5-dihydro-2H-pyrrol-2-one, and compositions containing them” (Roussel Uclaf, priority 1987, dated 1989).

Test system: male mice (Charles Rivers CD1)
Test: Learning and memorizing: anti-amnesiac effect on electric shock-induced retrograde amnesia (two-compartment luminous/dark box avoidance)
Assay type: in vivo
Conditions: for Percentage increase in latency time in comparison with the controls: 3 hours after treatment, * = statistically different in comparison with controls; for anti-amnesic activity: at doses between 50 and 200 mg/kg, oral route
Description: There were used male mice (Charles Rivers CD1) weighing 25-30 g. The animals were placed in the luminous part of a box with two compartments communicating by an opening [F. Barzaghi and G. Galliani, Brit. J. Pharmacol. 86, p.
At the instant when the mouse passes from the luminous compartment to the dark compartment, the opening closes and it is immediately punished by an electric discharge to the paws. The animal submitted to this procedure learns to memorize the punishment. In fact, if it is put back in the luminous compartment, it will thus avoid crossing the opening and reentering the dark compartment.
In order to induce a retrograde amnesia, the animals are submitted immediately after learning to an electric shock. After the electric shock, the products are administered by oral route at different doses.
There were used from 10 to 50 animals per dose.
The anti-amnesiac effect of the products is evaluated 3 hours after the treatment, using the same procedure as that utilized for the acquisition.
The time taken by the animal to return to the dark chamber (time limit 180 seconds) is used as evaluation parameter.
The active products are those which cause a significant increase in the latency time with a bell-shaped dose-response curve.
The results are expressed as percentages of the increase of the latency time in comparison with the corresponding controls.

| SMILES | Percentage increase in latency time in comparison with the controls (50 mg/kg per os) [%] | Percentage increase in latency time in comparison with the controls (100 mg/kg per os) [%] | Percentage increase in latency time in comparison with the controls (200 mg/kg per os) [%] | anti-amnesic activity |
| --- | --- | --- | --- | --- |
| CCCCOC1C=CC(=O)N1S(=O)(=O)c1ccccc1 (stereo not drawn) [Example 4, 1-benzenesulphonyl-5-n-butoxy-1,5-dihydro-2H-pyrrol-2-one] | 54 | 96 | 79 | have shown an anti-amnesic activity |
| CCCCCOC1C=CC(=O)N1S(=O)(=O)c1ccccc1 (stereo not drawn) [Example 6, 1-benzenesulphonyl-1,5-dihydro-5-n-pentyloxy-2H-pyrrol-2-one] | 73 | 92 | 76 | have shown an anti-amnesic activity |
| CCCCOC1C=CC(=O)N1S(=O)(=O)c1cccc(C(F)(F)F)c1 (stereo not drawn) [Example 12, 1-(3-trifluoromethyl-benzenesulphonyl)-5-n-butyloxy-1,5-dihydro-2H-pyrrol-2-one] | 20 | 75 | 92 | have shown an anti-amnesic activity |
| NC(=O)CN1CCCC1=O [PIRACETAM, reference compound] | 10 | 48 | 20 | – |
